Laboratory results from US4868303A, “Bis-dioxopiperazine derivatives” (Zenyaku Kogyo Kabushiki Kaisha, priority 1986, dated 1989).
Where a name gives a salt, the structure may show the parent alone.

What was measured:
[1] = test system: P388 lymphocytic leukemia; assay: Growth inhibition of tumor cells of P388 lymphocytic leukemia in vitro; format: cell-based, mouse (CDF1); settings: Mus musculus, 48 hours at 37° C., read-out: 50% Inhibitory concentration of cell growth (IC50)
Procedure: (I) Growth Inhibition of Tumor Cells of P388 Lymphocytic Leukemia in Vitro:
Tumor cells were collected aseptically with capillary tube from ascites in CDF1 female mice transplanted intraperitoneally with 1×10^6cells of P388 lymphocytic leukemia 5 days before. Cell suspension was prepared at 5×10^4 cells/0.5 ml in a RPMI1640 medium supplemented with 10% fetal calf serum, kanamycin (0.1 mg/ml) and 2-hydroxyethyldisulfide (0.01 mM). Each test sample was dissolved or suspended in the medium at a concentration of 1×10^-1 -1×10^-5 mM.
A test tube with Molton stopper loosely involving 0.5 ml each of the cell suspension and the sample suspension was kept for 48 hours at 37° C. in an incubator supplied with air containing 5% carbon dioxide. […] The cells harvested therefrom was counted by using of a Coulter Counter and the inhibition of cell growth was calculated by the following formula:
Growth Inhibition (%)=(1-T/C)×100
T: number of cells in the culture containing test sample
C: number of cells in the culture of control

V79 cells = assay: Inhibitory effect on colony formation of V79 cells in vitro; format: cell-based, Chinese hamster; settings: Cricetulus griseus, 96 hours with sample, read-out: 90% inhibitory concentration (IC90)
Procedure: (II) Inhibitory effect on Colony Formation of V79 Cells in Vitro:
V79 cells established from Chinese hamster lung fibroblastoma were cultured routinely on plastic dishes (.phi. 60 mm) in RPMI 1640 medium supplemented with 10% fetal calf serum and kanamycin (0.1 mg/ml). Each confluent culture was then trypsinized by the addition of 1 ml of trypsin-EDTA solution (supplied by the firm GIBCO) for 5 minutes at 37° C. in an incubator supplied with humidified air containing 5% CO2.
Homogeneous suspension of V79 cells thus obtained was diluted to 100, 200 and 400 viable cells/ml with the medium, and 1 ml each of them was transferred to other plastic dishes (.phi. 60 mm) containing 1.85 ml of the medium, and diluted to 100, 200 and 400 viable cells/dish.
Each test sample was dissolved in DMSO at the concentration of 20 mM and diluted with the medium to the final concentration of 2×10^-3 -2×10^-10 mM.
Each test dish was kept for 24 hours at 37° C. in an incubator supplied with humidified air containing 5% CO2, and was further cultured for 96 hours after 150 μl of the sample solution was added thereto.
The cells were gently washed once with Mg- and Ca-free phosphate-buffered saline [PBS(-)] and fixed with 1 ml of 3.5% HCHO-PBS(-) solution for 2 hours, then stained with a crystal violet ethanol solution.
The 90% inhibitory concentration (IC90) was calculated by comparing the number of visible colonies on the sample dish with that on the control dish.

[2] = test system: P388 lymphocytic leukemia; assay: Increase in life span on P388 lymphocytic leukemia tumor-transplanted mouse; format: in vivo, mouse (CDF1); settings: P388, ip, 24 h, intraperitoneal, day 1 and 5th day after transplantation, read-out: Rate of increase in life span (ILS); for ILS at 2.2 mg/kg: daily dose 2.2 mg/kg; for ILS at 3 mg/kg: daily dose 3.0 mg/kg; for ILS at 2.5 mg/kg: daily dose 2.5 mg/kg
Procedure: (III) Increase in Life Span on P388 Lymphocytic Leukemia Tumor-transplantedMouse:
The treated group to which the test sample was administered consisted of seven mice, while the control group consisted of ten mice. Six weeks old male mice (CDF1, 25±2 g of body weight) were employed as host animals.
Tumor cells (1.0×10^6) of P388 lymphocytic leukemia were transplanted intraperitoneally into each mouse. The treatment was effected one day after the transplantation and on 5th day by administering prescribed dose of each test sample intraperitoneally to the mice.
Antitumor activity of the test sample was evaluated by the rate of increase in life span (ILS) which was calculated with the following formula.
T': median survival time of treated mice
C': median survival time of control mice

Row | SMILES | IC50 [1] [nM] | IC90 (V79 cells) [nM] | other results
1 | C[C@H]([C@H](C)N1CC(=O)N(COC(=O)c2ccco2)C(=O)C1)N1CC(=O)NC(=O)C1 (relative stereo) [Sample 18, erythro-2-[4-(2-furoyloxymethyl)-3,5-dioxopiperazin-1-yl]-3-(3,5-dioxopiperazin-1-yl)butane] | 42 | 0.1 | ILS at 2.2 mg/kg [2]: 185%
2 | C[C@H]([C@H](C)N1CC(=O)N(COC(=O)[C@H](N)c2ccccc2)C(=O)C1)N1CC(=O)N(COC(=O)[C@H](N)c2ccccc2)C(=O)C1 [Sample 6, meso-2,3-bis[4-[(R)-2-amino-2-phenylacetoxymethyl]-3,5-dioxopiperazin-1-yl]butane trifluoroacetate] | 52 | – | –
3 | C[C@H]([C@H](C)N1CC(=O)N(COC(=O)c2ccccc2)C(=O)C1)N1CC(=O)NC(=O)C1 (relative stereo) [Sample 13, erythro-2-(4-benzoyloxymethyl-3,5-dioxopiperazin-1-yl)-3-(3,5-dioxopiperazin-1-yl)butane] | 38 | – | ILS at 2.2 mg/kg [2]: 118%
4 | C[C@H]([C@H](C)N1CC(=O)N(COC(=O)c2ccccc2)C(=O)C1)N1CC(=O)N(COC(=O)c2ccccc2)C(=O)C1 [Sample 16, meso-2,3-bis(4-benzoyloxymethyl-3,5-dioxopiperazin-1-yl)butane] | 250 | 0.098 | ILS at 3 mg/kg [2]: 150%
5 | CC(=O)OCN1C(=O)CN([C@@H](C)[C@@H](C)N2CC(=O)NC(=O)C2)CC1=O (relative stereo) [Sample 9, erythro-2-(4-acetoxymethyl-3,5-dioxopiperazin-1-yl)-3-(3,5-dioxopiperazin-1-yl)butane] | 74 | – | –
6 | CC(C(C)N1CC(=O)N(COC(=O)C=Cc2cccc(Cl)c2)C(=O)C1)N1CC(=O)N(COC(=O)C=Cc2cccc(Cl)c2)C(=O)C1 (stereo not drawn) [Sample 4, meso-2,3-bis[4-(3-chlorocinnamoyloxymethyl)-3,5-dioxopiperazin-1-yl]butane] | 240 | – | –
7 | CC(C(C)N1CC(=O)N(COC(=O)C=Cc2cccc(Cl)c2)C(=O)C1)N1CC(=O)NC(=O)C1 (stereo not drawn) [Sample 12, erythro-2-[4-(3-chlorocinnamoyloxymethyl)-3,5-dioxopiperazin-1-yl]-3-(3,5-dioxopiperazin-1-yl)butane] | 11 | 0.098 | ILS at 2.5 mg/kg [2]: 90%
8 | C[C@H]([C@H](C)N1CC(=O)NC(=O)C1)N1CC(=O)NC(=O)C1 [Sample B, meso-2,3-bis(3,5-dioxopiperazin-1-yl)butane, reference compound] | – | 5.3 | –
9 | C[C@H]([C@H](C)N1CC(=O)N(COC(=O)OCc2ccccc2)C(=O)C1)N1CC(=O)NC(=O)C1 (relative stereo) [Sample 19, erythro-2-(4-benzyloxycarbonyloxymethyl-3,5-dioxopiperazin-1-yl)-3-(3,5-dioxopiperazin-1-yl)butane] | 11 | 0.09 | ILS at 2.4 mg/kg ([2]; daily dose 2.4 mg/kg): 132%
10 | CC(=O)OCN1C(=O)CN([C@H](C)[C@H](C)N2CC(=O)N(COC(C)=O)C(=O)C2)CC1=O [Sample 1, meso-2,3-bis(4-acetoxymethyl-3,5-dioxopiperazin-1-yl)butane] | 300 | 0.089 | ILS at 1.5 mg/kg ([2]; daily dose 1.5 mg/kg): 152%
11 | C[C@H]([C@H](C)N1CC(=O)N(COC(=O)Cc2ccccc2Cl)C(=O)C1)N1CC(=O)N(COC(=O)Cc2ccccc2Cl)C(=O)C1 [Sample 2, meso-2,3-bis[4-(2-chlorophenylacetoxymethyl)-3,5-dioxopiperazin-1-yl]butane] | 8.6 | – | ILS at 3.4 mg/kg ([2]; daily dose 3.4 mg/kg): 107%
12 | C[C@H]([C@H](C)N1CC(=O)N(COC(=O)COc2ccc(Cl)cc2Cl)C(=O)C1)N1CC(=O)NC(=O)C1 (relative stereo) [Sample 11, erythro-2-[4-(2,4-dichlorophenoxyacetoxymethyl)-3,5-dioxopiperazin-1-yl]-3-(3,5-dioxopiperazin-1-yl)butane] | 77 | 0.082 | ILS at 2.7 mg/kg ([2]; daily dose 2.7 mg/kg): 132%
13 | CC(C)COC(=O)OCN1C(=O)CN(CCN2CC(=O)N(COC(=O)OCC(C)C)C(=O)C2)CC1=O [Sample A, 1,2-bis(4-isobutoxycarbonyloxymethyl-3,5-dioxopiperazin-1-yl)ethane, reference compound] | 16000 | 110 | ILS at 3 mg/kg [2]: 5%; ILS at 250 mg/kg ([2]; daily dose 250 mg/kg (*Adequate dose)): 106%
14 | C[C@H]([C@H](C)N1CC(=O)N(COC(=O)COc2ccc(Cl)cc2Cl)C(=O)C1)N1CC(=O)N(COC(=O)COc2ccc(Cl)cc2Cl)C(=O)C1 [Sample 3, meso-2,3-bis[4-(2,4-dichlorophenoxyacetoxymethyl)-3,5-dioxopiperazin-1-yl]butane] | 71 | – | –
15 | CC(C)COC(=O)OCN1C(=O)CN([C@H](C)[C@H](C)N2CC(=O)N(COC(=O)OCC(C)C)C(=O)C2)CC1=O [Sample 7, meso-2,3-bis(4-isobutoxycarbonyloxymethyl-3,5-dioxopiperazin-1-yl)butane] | 84 | 0.0045 | ILS at 3 mg/kg [2]: 104%
16 | C[C@H]([C@H](C)N1CC(=O)N(COC(=O)Cc2ccccc2Cl)C(=O)C1)N1CC(=O)NC(=O)C1 (relative stereo) [Sample 10, erythro-2-[4-(2-chlorophenylacetoxymethyl)-3,5-dioxopiperazin-1-yl]-3-(3,5-dioxopiperazin-1-yl)butane] | 7.1 | 0.073 | ILS at 2.5 mg/kg [2]: 162%
17 | C[C@H]([C@H](C)N1CC(=O)N(COC(=O)OCc2ccc([N+](=O)[O-])cc2)C(=O)C1)N1CC(=O)N(COC(=O)OCc2ccc([N+](=O)[O-])cc2)C(=O)C1 [Sample 8, meso-2,3-bis[4-(4-nitrobenzyloxycarbonyloxymethyl)-3,5-dioxopiperazin-1-yl]butane] | 150 | – | –
18 | C[C@H]([C@H](C)N1CC(=O)N(COC(=O)[C@H](NC(=O)OC(C)(C)C)c2ccccc2)C(=O)C1)N1CC(=O)N(COC(=O)[C@H](NC(=O)OC(C)(C)C)c2ccccc2)C(=O)C1 [Sample 5, meso-2,3-bis[4-[(R)-2-N-tert-butoxycarbonylamino-2-phenylacetoxymethyl]-3,5-dioxopiperazin-1-yl]butane] | 32 | – | –
19 | C[C@H]([C@H](C)N1CC(=O)N(COC(=O)OCc2ccc([N+](=O)[O-])cc2)C(=O)C1)N1CC(=O)NC(=O)C1 (relative stereo) [Sample 15, erythro-2-[4-(4-nitrobenzyloxycarbonyloxymethyl)-3,5-dioxopiperazin-1-yl]-3-(3,5-dioxopiperazin-1-yl)butane] | 240 | – | ILS at 2.6 mg/kg ([2]; daily dose 2.6 mg/kg): 177%
20 | C[C@H]([C@H](C)N1CC(=O)N(COC(=O)OCc2ccccc2)C(=O)C1)N1CC(=O)N(COC(=O)OCc2ccccc2)C(=O)C1 [Sample 17, meso-2,3-bis(4-benzyloxycarbonyloxymethyl-3,5-dioxopiperazin-1-yl)butane] | 56 | – | ILS at 3.2 mg/kg ([2]; daily dose 3.2 mg/kg): 179%
